Measurements taken from patent publication US20210214303A1, “SCORPION VENOM BENZOQUINONE DERIVATIVES AND USES THEREOF” (priority 2018, published 2021).
In brackets after ≈: the same amount, converted by molar mass.

Experiments:
M. tuberculosis = conditions: related compounds from the literature (Tran et al. 2004); cited from earlier work
Staphylococcus aureus = test: broth microdilution assay (MIC); assay type: cell-based; conditions: S. aureus, read-out: minimum inhibitory concentration (MIC)
Procedure: FIG. 3D illustrates the determination of the minimal inhibitory concentrations (MICs) of the red and blue 1,4 benzoquinones against Staphylococcus aureus. The MICs determined by the broth microdilution assay are 4 μg/mL for the red 1,4 benzoquinone and 6 μg/mL for the blue 1,4 benzoquinone. Ampicillin was used as a positive control. Each result is reported as the mean±SD.
This difference was confirmed using a broth microdilution assay (FIG. 3D). The minimum inhibitory concentration (MIC) for S. aureus growth was 4 μg/mL for the red 1,4 benzoquinone and 6 μg/mL for the blue 1,4 benzoquinone (FIG. 3D, Table 1). Ampicillin (MIC=0.5 μg/mL) was used as a positive control (ESCMID Eo (2003) Clin. Microbiol. Infect. 9: ix-xv; Pieterse et al., (2010) Brazil. J. Microbiol. 41: 133-145). These compounds were bactericidal at their MICs, killing 90% of S. aureus in 6 h and 99.9% in 24 h (Table 2).

Compound | MIC (M. tuberculosis) [µg/mL] | MIC (Staphylococcus aureus) [µg/mL]
O=C1C=CC(=O)C=C1 [1,4-benzoquinone] | 25 (≈ 231 µM) | –
O=C1C=CC(=O)c2ccccc21 [1,4-napthoquinone] | 100 (≈ 632 µM) | –
CC1(C)S[C@@H]2[C@H](NC(=O)[C@H](N)c3ccccc3)C(=O)N2[C@H]1C(=O)O [Ampicillin, reference compound] | – | 0.5 (≈ 1.43 µM)
